Experimental data as given in patent publication US7951232B2, “Surface coating compositions and methods” (Elevance Renewable Sciences, Inc., priority 2006, dated 2011).

Test system: Pseudomonas aeroginosa, ATCC 15442
Assay: Time-Kill Procedure (ASTM), rate of kill
Assay type: cell-based, Pseudomonas aeruginosa
Procedure: The rate of kill for these organisms upon exposure to 9-decenoic acid was determined using the American Society for Testing and Materials (ASTM) procedure entitled “Standard Test Method for the Assessment of Microbiocidal Activity of Test Materials Using a Time-Kill Procedure”, October 1998. This procedure incorporates the recommendations described in the “Manual of Clinical Microbiology,”5th ed., edited by A. B. Balows et al., ASM, Washington, and is directed by the Federal Register, June 1994.
Stock cultures were transferred into TSB and incubated for 18-24 hours at 37±2° C. A second transfer was made onto TSA plates and were incubated for 18-24 hours at 37±2° C. The plates were removed from incubation and the bacterial growth washed from the agar surface using Butterfield's Phosphate Buffered Dilution Water (PBDW). The bacterial suspension was adjusted to contain approximately 10^8 Colony Forming Units (CFU)/ml with PBDW using spectrophometric methods extant in the laboratory.
The concentrated 9-decenoic acid was diluted 1:40 in filter sterilized isopropanol to yield a 2.5% stock solution. Subsequent dilutions to the 9-decenoic acid stock solutions were made with sterile Deionized Water (DI) to achieve concentrations of 0.1%, 0.05%, 0.01%, and 0.001%. The pH was determined for each dilution; pH values ranged from 4.4-4.1. Additionally, the 9-decenoic acid stock solution was adjusted to pH 7 with 1 N NaOH and serially diluted with sterile DI to achieve concentrations of 1.0%, 0.75% and 0.5%.
Compliant with the ASTM procedure cited, for each challenge microorganism a 9.9 ml aliquot of the prepared 9-decenoic acid suspension was added to a sterile tube. A 0.1 ml aliquot of the standardized inoculum was added to the 9-decenoic acid solution representing the start of the test exposure. The inoculated 9-decenoic acid solution was immediately mixed thoroughly. The inoculated suspension was held at room temperature for 0.5, 2, 5, 7 and 10 minute exposure times for tests run at ˜pH 4. The pH 7 tests were held at room temperature for 0.5 and 2 minutes.
At each exposure sample time, a 1.0 ml aliquot of the inoculated 9-decenoic acid suspension was transferred to 9.0 ml of D/E Neutralizing Broth. Additional ten-fold serial dilutions were made in PBDW and plated in duplicate on TSA. All plates were incubated for 48 hours at 37±2° C. and visually examined for growth. The plates are enumerated, recorded and log kill determined for each time point.
The following study controls were conducted: culture purity, neutralizer sterility, initial suspension population, test population, neutralization verification and a negative control using isopropanol. Culture purity was verified by performing a streak plate for isolated colonies on the each culture used. All cultures were determined to be pure based on consistent colony morphology typical for the test organism. The neutralizer sterility was confirmed by no growth in an incubated sample.
The population of the initial and test culture were determined by serial dilution, plating and enumerating after incubation. The initial suspension were determined to be ≧10^4 CFU/ml. The test culture population was used for calculation of the log reduction achieved at each time point.
Neutralization effectiveness was verified by a filtration test. For each organism, four tubes were prepared with 9 ml D/E Neutralizing Broth and fewer than 100 CFU/ml of the organism. A 1.0 ml aliquot of prepared 9-decenoic acid was added to each tube. Immediately, the entire contents of 2 tubes were filtered through a filtration apparatus and rinsed with sterile diluent. The remaining 2 tubes were held at room temperature for 30 minutes and then the entire contents were filtered using the same procedure. The filters were aseptically transferred to TSA plates and incubated for 48 hours at 37±2° C. and visually examined for growth.
This control was inoculated, subcultured and incubated as in the test procedure.

Measured: Log reduction of organisms after exposure

C=CCCCCCCCC(=O)O [9-decenoic acid]
>6.1 log: 0.01%, pH 4.4, exposure 0.5 minutes | 0.01%, pH 4.4, exposure 2 minutes | 0.01%, pH 4.4, exposure 5 minutes | 0.01%, pH 4.4, exposure 7 minutes | 0.01%, pH 4.4, exposure 10 minutes | 0.05%, pH 4.1, exposure 0.5 minutes | 0.05%, pH 4.1, exposure 2 minutes | 0.05%, pH 4.1, exposure 5 minutes | 0.05%, pH 4.1, exposure 7 minutes | 0.05%, pH 4.1, exposure 10 minutes | 0.1%, pH 4.1, exposure 0.5 minutes | 0.1%, pH 4.1, exposure 2 minutes | 0.1%, pH 4.1, exposure 5 minutes | 0.1%, pH 4.1, exposure 7 minutes | 0.1%, pH 4.1, exposure 10 minutes
